Results reported in the supplement of paper PMC11061612.

Assays:
[1] = compound: C1CC(C1)(C(=O)[O-])C(=O)[O-].N.N.[Pt+2] [Carboplatin]; conditions: max 10 µM
Method in brief: (§1)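 After 24 hours at 37°C and 5% CO2 in 1536-well plates holding 7.5 μl of DMEM/F12 or RPMI with 10% FBS, cancer cell lines were dosed for 72 hours, with final DMSO typically 0.2%. Viability came from CellTiter-Glo 2.0 luminescence, scaled between the means of blank wells and DMSO wells. A non-linear mixed effects model fitted a two-parameter logistic curve to each dose response to give the single-agent IC50.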

[2] = compound: C1CN(CCC1(C(=O)N[C@@H](CCO)C2=CC=C(C=C2)Cl)N)C3=NC=NC4=C3C=CN4 [AZD5363]; conditions: max 10 µM
Method in brief: as §1

[3] = compound: C=CCn1c(=O)c2cnc(Nc3ccc(N4CCN(C)CC4)cc3)nc2n1-c1cccc(C(C)(C)O)n1 [AZD1775]; conditions: max 3 µM
Method in brief: as §1

[4] = compound: CC(=O)Nc1cccc(-n2c(=O)n(C3CC3)c(=O)c3c(Nc4ccc(I)cc4F)n(C)c(=O)c(C)c32)c1 [Trametinib]; conditions: max 1 µM
Method in brief: as §1

[5] = compound: CC(=O)O[C@H]1C(=O)[C@@]2(C)[C@H]([C@H](OC(=O)c3ccccc3)[C@]3(O)C[C@H](OC(=O)[C@H](O)[C@@H](NC(=O)c4ccccc4)c4ccccc4)C(C)=C1C3(C)C)[C@]1(OC(C)=O)CO[C@@H]1C[C@@H]2O [Paclitaxel]; conditions: max 3 µM
Method in brief: as §1

[6] = compound: CC(=O)c1c(C)c2cnc(Nc3ccc(N4CCNCC4)cn3)nc2n(C2CCCC2)c1=O [Palbociclib]; conditions: max 10 µM
Method in brief: as §1

[7] = compound: CC(C)n1c(=O)n(C)c2cnc3cc(F)c(-c4ccc(OCCCN5CCCCC5)nc4)cc3c21 [AZD1390]; conditions: max 0.3 µM
Method in brief: as §1

[8] = compound: CC1(C)CCC(CN2CCN(c3ccc(C(=O)NS(=O)(=O)c4ccc(NCC5CCOCC5)c([N+](=O)[O-])c4)c(Oc4cnc5[nH]ccc5c4)c3)CC2)=C(c2ccc(Cl)cc2)C1 [Venetoclax]; conditions: max 1 µM
Method in brief: as §1

[9] = compound: CC1=C(C(=CC=C1)Cl)NC(=O)C2=CN=C(S2)NC3=CC(=NC(=N3)C)N4CCN(CC4)CCO [Dasatinib]; conditions: max 2 µM
Method in brief: as §1

[10] = compound: CC1=CN2[C@@H](C1)C=NC3=CC(=C(C=C3C2=O)OC)OCCCCCOC4=C(C=C5C(=C4)N=C[C@@H]6CC(=CN6C5=O)C)OC [SG3199]; conditions: max 0.001 µM
Method in brief: as §1

[11] = compound: CCN(CCO)CCCOc1ccc2c(Nc3cc(CC(=O)Nc4cccc(F)c4)[nH]n3)ncnc2c1 [AZD2811]; conditions: max 1 µM
Method in brief: as §1

[12] = compound: CCc1c2c(nc3ccc(O)cc13)-c1cc3c(c(=O)n1C2)COC(=O)[C@]3(O)CC [SN-38]; conditions: max 0.3 µM
Method in brief: as §1

[13] = compound: CN(C)CCCOc1ccc(-c2ccc3ncc4c(c3c2)n(C2CCOCC2)c(=O)n4C)cn1 [AZD0156]; conditions: max 3 µM
Method in brief: as §1

[14] = compound: CN(CC[C@H](CSC1=CC=CC=C1)NC2=C(C=C(C=C2)S(=O)(=O)NC(=O)C3=CC=C(C=C3)N4CCC(CC4)[C@H](C5=CC=CC=C5C6=CC=C(C=C6)Cl)O)S(=O)(=O)C(F)(F)F)CCO [AZD4320]; conditions: max 1 µM
Method in brief: as §1

[15] = compound: COc1cc(Nc2ncc3c(n2)-c2ccc(Cl)cc2C(c2c(F)cccc2OC)=NC3)ccc1C(=O)O [Alisertib]; conditions: max 10 µM
Method in brief: as §1

[16] = compound: COc1cc([C@@H]2c3cc4c(cc3[C@@H](O[C@@H]3O[C@@H]5CO[C@@H](C)O[C@H]5[C@H](O)[C@H]3O)[C@H]3COC(=O)[C@H]23)OCO4)cc(OC)c1O [Etoposide]; conditions: max 10 µM
Method in brief: as §1

[17] = compound: COc1cc2ncnc(Nc3ccc(F)c(Cl)c3)c2cc1OCCCN1CCOCC1 [Gefitinib]; conditions: max 10 µM
Method in brief: as §1

[18] = compound: COc1cccc(OCCCN)c1-c1cc(Nc2cnc(C#N)cn2)n[nH]1 [Prexasertib]; conditions: max 1 µM
Method in brief: as §1

[19] = compound: COc1cccc2c1C(=O)c1c(O)c3c(c(O)c1C2=O)C[C@@](O)(C(=O)CO)C[C@@H]3O[C@H]1C[C@H](N)[C@H](O)[C@H](C)O1 [Doxorubicin]; conditions: max 1 µM
Method in brief: as §1

[20] = compound: COc1nnc2ccc(N3CCC(c4ccc(OCCN5CCN(C)C(=O)[C@H]5C)cc4)CC3)nn12 [AZD5153]; conditions: max 1 µM
Method in brief: as §1

[21] = compound: CS(=O)(=O)CCNCc1ccc(-c2ccc3ncnc(Nc4ccc(OCc5cccc(F)c5)c(Cl)c4)c3c2)o1 [Lapatinib]; conditions: max 10 µM
Method in brief: as §1

[22] = compound: C[C@@H](Nc1cc(F)cc(F)c1)c1cc(C(=O)N(C)C)cc2c(=O)cc(N3CCOCC3)oc12 [AZD8186]; conditions: max 10 µM
Method in brief: as §1

[23] = compound: C[C@@H](Oc1cc(-c2cnn(C3CCNCC3)c2)cnc1N)c1c(Cl)ccc(F)c1Cl [Crizotinib]; conditions: max 10 µM
Method in brief: as §1

[24] = compound: C[C@@H](c1ccc2nccn2c1)n1nnc2ncc(-c3cnn(C)c3)nc21 [Savolitinib]; conditions: max 1 µM
Method in brief: as §1

[25] = compound: C[C@@H]1COCCN1C2=NC(=NC(=C2)C3(CC3)[S@](=N)(=O)C)C4=C5C=CNC5=NC=C4 [AZD6738]; conditions: max 10 µM
Method in brief: as §1

[26] = compound: Cc1c2c(nn1C)CSCc1cc(n(C)n1)CSc1cc(c3ccccc3c1)OCCCc1c(C(=O)O)n(C)c3c-2c(Cl)ccc13 [AZD5991]; conditions: max 1 µM
Method in brief: as §1

[27] = compound: Cc1cc2ncnn2cc1Nc1ncc2c(n1)n(C1CCOCC1)c(=O)n2C [AZD7648]; conditions: max 10 µM
Method in brief: as §1

[28] = compound: Cc1nc(-c2cn3c(n2)-c2ccc(-c4cnn(C(C)(C)C(N)=O)c4)cc2OCC3)n(C(C)C)n1 [Taselisib]; conditions: max 10 µM
Method in brief: as §1

[29] = compound: Cn1cnc2c(F)c(Nc3ccc(Br)cc3Cl)c(C(=O)NOCCO)cc21 [Selumetinib]; conditions: max 10 µM
Method in brief: as §1

[30] = compound: N#Cc1cnc(Nc2cc(NC[C@H]3CNCCO3)c(C(F)(F)F)cn2)cn1 [SRA737]; conditions: max 10 µM
Method in brief: as §1

[31] = compound: NC1(c2ccc(-c3nc4ccn5c(=O)[nH]nc5c4cc3-c3ccccc3)cc2)CCC1 [MK-2206]; conditions: max 10 µM
Method in brief: as §1

[32] = compound: Nc1ccn([C@@H]2O[C@H](CO)[C@@H](O)C2(F)F)c(=O)n1 [Gemcitabine]; conditions: max 0.3 µM
Method in brief: as §1

[33] = compound: O=C(Nc1ccc2[nH]nc(-c3ccncc3)c2c1)[C@@H]1CCN(CC(=O)N2CCN(c3ccc(-c4ncccn4)cc3)CC2)C1; conditions: max 5 µM
Method in brief: as §1

[34] = compound: O=C(c1cc(Cc2n[nH]c(=O)c3ccccc23)ccc1F)N1CCN(C(=O)C2CC2)CC1 [Olaparib]; conditions: max 10 µM
Method in brief: as §1

[35] = compound: O=c1[nH]cc(F)c(=O)[nH]1 [5-Fluorouracil]; conditions: max 20 µM
Method in brief: as §1

| Cell Line | IC50, cell viability 72 h [1] | IC50, cell viability 72 h [2] | IC50, cell viability 72 h [3] | IC50, cell viability 72 h [4] | IC50, cell viability 72 h [5] | IC50, cell viability 72 h [6] | IC50, cell viability 72 h [7] | IC50, cell viability 72 h [8] | IC50, cell viability 72 h [9] | IC50, cell viability 72 h [10] | IC50, cell viability 72 h [11] | IC50, cell viability 72 h [12] | IC50, cell viability 72 h [13] | IC50, cell viability 72 h [14] | IC50, cell viability 72 h [15] | IC50, cell viability 72 h [16] | IC50, cell viability 72 h [17] | IC50, cell viability 72 h [18] | IC50, cell viability 72 h [19] | IC50, cell viability 72 h [20] | IC50, cell viability 72 h [21] | IC50, cell viability 72 h [22] | IC50, cell viability 72 h [23] | IC50, cell viability 72 h [24] | IC50, cell viability 72 h [25] | IC50, cell viability 72 h [26] | IC50, cell viability 72 h [27] | IC50, cell viability 72 h [28] | IC50, cell viability 72 h [29] | IC50, cell viability 72 h [30] | IC50, cell viability 72 h [31] | IC50, cell viability 72 h [32] | IC50, cell viability 72 h [33] | IC50, cell viability 72 h [34] | IC50, cell viability 72 h [35] |
| --- | --- | --- | --- | --- | --- | --- | --- | --- | --- | --- | --- | --- | --- | --- | --- | --- | --- | --- | --- | --- | --- | --- | --- | --- | --- | --- | --- | --- | --- | --- | --- | --- | --- | --- | --- |
| SK-N-AS (Neuroblastoma) | > 10 µM | > 10 µM | 1 µM | 0.126 µM | 0.299 µM | > 10 µM | > 0.3 µM | > 1 µM | > 2 µM | > 0.001 µM | > 1 µM | 0.0812 µM | > 3 µM | > 1 µM | 0.78 µM | > 10 µM | > 10 µM | 0.01 µM | > 1 µM | > 1 µM | > 10 µM | > 10 µM | > 10 µM | > 1 µM | 2.94 µM | > 1 µM | > 10 µM | > 10 µM | > 10 µM | 8.03 µM | > 10 µM | 0.232 µM | > 5 µM | > 10 µM | > 20 µM |
| SKN (Other Solid Carcinomas) | > 10 µM | 5.64 µM | > 3 µM | > 1 µM | 0.0953 µM | > 10 µM | > 0.3 µM | > 1 µM | 0.179 µM | > 0.001 µM | > 1 µM | > 0.3 µM | > 3 µM | > 1 µM | > 10 µM | > 10 µM | > 10 µM | > 1 µM | > 1 µM | 0.446 µM | > 10 µM | 1.84 µM | > 10 µM | > 1 µM | > 10 µM | > 1 µM | > 10 µM | 2.87 µM | > 10 µM | > 10 µM | > 10 µM | > 0.3 µM | > 5 µM | > 10 µM | > 20 µM |
| SNU-387 (Hepatocellular Carcinoma) | > 10 µM | > 10 µM | 1.03 µM | 0.583 µM | 0.0274 µM | > 10 µM | > 0.3 µM | > 1 µM | > 2 µM | > 0.001 µM | > 1 µM | > 0.3 µM | > 3 µM | > 1 µM | > 10 µM | > 10 µM | > 10 µM | 0.555 µM | > 1 µM | > 1 µM | > 10 µM | 8.36 µM | > 10 µM | > 1 µM | > 10 µM | > 1 µM | > 10 µM | > 10 µM | > 10 µM | > 10 µM | > 10 µM | > 0.3 µM | > 5 µM | > 10 µM | > 20 µM |
| SW872 (Other Solid Carcinomas) | > 10 µM | > 10 µM | > 3 µM | > 1 µM | 0.21 µM | > 10 µM | > 0.3 µM | > 1 µM | > 2 µM | > 0.001 µM | > 1 µM | 0.0209 µM | > 3 µM | > 1 µM | > 10 µM | 6.82 µM | > 10 µM | 0.156 µM | 0.784 µM | 0.793 µM | > 10 µM | > 10 µM | > 10 µM | > 1 µM | > 10 µM | > 1 µM | > 10 µM | 8.84 µM | > 10 µM | > 10 µM | > 10 µM | 0.0691 µM | > 5 µM | > 10 µM | 8.43 µM |
| SW982 (Other Solid Carcinomas) | > 10 µM | > 10 µM | 1.14 µM | 0.702 µM | 0.00645 µM | 4.39 µM | > 0.3 µM | > 1 µM | 0.068 µM | > 0.001 µM | 0.444 µM | 0.00938 µM | > 3 µM | > 1 µM | 1.04 µM | 0.789 µM | > 10 µM | 0.0913 µM | 0.0804 µM | 0.0633 µM | > 10 µM | 4.65 µM | 3.59 µM | > 1 µM | 5.53 µM | > 1 µM | > 10 µM | 2.62 µM | > 10 µM | > 10 µM | > 10 µM | 0.0136 µM | 2.85 µM | > 10 µM | 11.3 µM |
